Values quoted from earlier work in US20050255458A1, “Drug discovery assays based on the biology of chronic disease” (priority 2002, published 2005).
Read-outs that look alike come from different tables or passages of the source.

Assays:
[1] = cited from earlier work
[2] = tested on: GABP; conditions: cited from earlier work; for GABP DNA binding activity, treated nuclear extracts: 3T3 nuclear extracts, DTT on extracts of DEM-treated cells, GSSG 5 mM
[3] = tested on: NOD mice; conditions: mouse, in vivo; cited from earlier work
[4] = tested on: hair follicles (onset of anagen); conditions: cited from earlier work
[5] = tested on: TF; conditions: cited from earlier work
[6] = tested on: Elk-1; conditions: Peterziel 1999; cited from earlier work
[7] = tested on: TF; conditions: dose-dependent; cited from earlier work
[8] = tested on: TF antigen; conditions: starting on day 3, significant on day 28; cited from earlier work
[9] = tested on: metallothionein (MT); conditions: OC15 EC, OC15 END cells; cited from earlier work
[10] = target: T1, ACE (Oryctolagus cuniculus, UniProt P12822); conditions: cited from earlier work
T1 construct: from tissue; host or cells: whole animal, in vivo (Watanabe rabbit)
T1 sequence (P12822 34-1310): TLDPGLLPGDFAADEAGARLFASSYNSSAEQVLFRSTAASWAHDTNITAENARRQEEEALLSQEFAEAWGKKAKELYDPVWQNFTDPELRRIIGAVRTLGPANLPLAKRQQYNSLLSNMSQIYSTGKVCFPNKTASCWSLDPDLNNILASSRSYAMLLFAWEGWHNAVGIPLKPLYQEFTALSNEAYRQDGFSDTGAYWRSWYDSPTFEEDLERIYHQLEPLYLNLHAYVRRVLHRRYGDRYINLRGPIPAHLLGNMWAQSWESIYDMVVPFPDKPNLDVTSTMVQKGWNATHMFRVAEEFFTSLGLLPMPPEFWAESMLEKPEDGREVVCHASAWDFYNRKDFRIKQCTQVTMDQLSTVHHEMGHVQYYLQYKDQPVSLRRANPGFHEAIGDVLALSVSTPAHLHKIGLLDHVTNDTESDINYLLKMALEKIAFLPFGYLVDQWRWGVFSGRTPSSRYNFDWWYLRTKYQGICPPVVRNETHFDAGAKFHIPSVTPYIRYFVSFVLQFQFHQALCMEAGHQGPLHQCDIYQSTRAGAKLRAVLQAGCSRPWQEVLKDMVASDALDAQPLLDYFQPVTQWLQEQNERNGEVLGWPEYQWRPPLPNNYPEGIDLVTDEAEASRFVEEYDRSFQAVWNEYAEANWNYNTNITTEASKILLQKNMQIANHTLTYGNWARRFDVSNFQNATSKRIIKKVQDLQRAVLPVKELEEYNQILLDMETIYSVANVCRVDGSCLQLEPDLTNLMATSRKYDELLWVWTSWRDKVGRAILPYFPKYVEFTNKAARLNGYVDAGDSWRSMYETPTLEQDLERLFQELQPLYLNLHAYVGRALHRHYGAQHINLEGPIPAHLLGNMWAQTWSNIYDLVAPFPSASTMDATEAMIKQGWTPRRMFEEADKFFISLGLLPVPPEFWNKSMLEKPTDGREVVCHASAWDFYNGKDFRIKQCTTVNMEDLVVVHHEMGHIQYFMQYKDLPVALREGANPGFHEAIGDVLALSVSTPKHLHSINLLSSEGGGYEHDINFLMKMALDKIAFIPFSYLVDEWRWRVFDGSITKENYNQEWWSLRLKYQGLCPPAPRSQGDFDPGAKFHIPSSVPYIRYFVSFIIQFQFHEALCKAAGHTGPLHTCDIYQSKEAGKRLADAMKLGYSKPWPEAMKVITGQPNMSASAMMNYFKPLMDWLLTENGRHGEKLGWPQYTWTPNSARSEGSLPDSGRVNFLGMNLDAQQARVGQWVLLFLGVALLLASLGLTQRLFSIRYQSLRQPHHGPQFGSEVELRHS

[11] = target: T2, ACE (Mus musculus, UniProt P09470); conditions: cited from earlier work
T2 sequence (P09470 35-1312): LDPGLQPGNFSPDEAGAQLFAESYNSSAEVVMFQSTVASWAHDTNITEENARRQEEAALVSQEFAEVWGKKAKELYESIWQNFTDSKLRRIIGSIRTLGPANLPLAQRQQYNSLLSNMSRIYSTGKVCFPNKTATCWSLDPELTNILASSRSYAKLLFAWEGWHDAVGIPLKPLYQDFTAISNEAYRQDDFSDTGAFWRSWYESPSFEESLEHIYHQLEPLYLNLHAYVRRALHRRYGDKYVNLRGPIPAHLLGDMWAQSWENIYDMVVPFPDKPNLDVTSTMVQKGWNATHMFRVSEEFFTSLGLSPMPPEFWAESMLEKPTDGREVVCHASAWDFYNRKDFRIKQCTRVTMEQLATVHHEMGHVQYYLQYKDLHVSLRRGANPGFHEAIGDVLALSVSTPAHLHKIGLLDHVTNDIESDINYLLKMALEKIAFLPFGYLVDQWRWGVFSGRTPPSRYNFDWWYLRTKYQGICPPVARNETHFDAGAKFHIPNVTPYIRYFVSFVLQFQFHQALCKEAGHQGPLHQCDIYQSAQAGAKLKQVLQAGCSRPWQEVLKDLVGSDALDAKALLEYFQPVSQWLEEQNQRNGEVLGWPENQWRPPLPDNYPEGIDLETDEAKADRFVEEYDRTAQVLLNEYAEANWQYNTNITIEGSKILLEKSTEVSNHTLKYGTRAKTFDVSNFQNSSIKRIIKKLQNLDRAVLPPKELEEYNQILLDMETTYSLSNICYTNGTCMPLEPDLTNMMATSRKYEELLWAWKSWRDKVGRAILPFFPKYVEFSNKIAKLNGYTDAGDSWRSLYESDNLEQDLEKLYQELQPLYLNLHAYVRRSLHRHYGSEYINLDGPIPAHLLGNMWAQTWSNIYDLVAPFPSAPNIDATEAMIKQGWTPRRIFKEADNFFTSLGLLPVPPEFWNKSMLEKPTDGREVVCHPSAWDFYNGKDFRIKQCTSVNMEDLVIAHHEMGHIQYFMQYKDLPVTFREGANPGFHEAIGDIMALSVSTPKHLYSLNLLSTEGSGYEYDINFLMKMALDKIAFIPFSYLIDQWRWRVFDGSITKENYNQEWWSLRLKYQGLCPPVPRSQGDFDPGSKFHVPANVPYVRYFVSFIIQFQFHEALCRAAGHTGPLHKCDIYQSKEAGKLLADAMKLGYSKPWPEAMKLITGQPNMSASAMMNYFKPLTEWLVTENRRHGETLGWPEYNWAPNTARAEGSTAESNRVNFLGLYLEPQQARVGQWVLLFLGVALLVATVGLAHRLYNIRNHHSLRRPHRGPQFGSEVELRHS

[12] = tested on: ERK; conditions: cited from earlier work
[13] = tested on: AR gene; conditions: LNCaP; cited from earlier work
[14] = tested on: AChRδ and AChRε genes; conditions: cited from earlier work
[15] = tested on: ERK1/2; conditions: cited studies, various cells; cited from earlier work
[16] = tested on: TF; conditions: cited from earlier work; remark: listed apart in the source

CN(N=O)C(=O)N[C@H]1C(O)O[C@H](CO)[C@@H](O)[C@@H]1O (mixture of isomers) [STZ, streptozotocin]
increase in ratio of liver weight to body weight ([1]; 8 days after injection): 12%
hepatocyte mitosis ([1]; 8 days): 300 % of normal
increase in ratio of liver weight to body weight ([1]; 30 days): 44%
hepatocyte mitosis ([1]; 90 days): 25 % of normal

O[C@H](CS)[C@H](O)CS (racemic) [DTT, dithiothreitol]
GABP DNA binding activity, treated nuclear extracts [2]: restored GABP binding activity

O=C(O)CCCC[C@@H]1CCSS1 (racemic) [lipoic acid]
insulitis and diabetes [3]: decreased insulitis and delayed diabetes

C[C@]12CC[C@@H]3c4ccc(O)cc4CC[C@H]3[C@@H]1CC[C@@H]2O [17β-estradiol]
delay in hair regrowth ([4]; topical 10 nmol twice weekly, female CD-1 mice): indefinite delay
hair growth ([4]; topical application (Chanda 2000)): decreased hair growth

CC(=O)N[C@@H](CS)C(=O)O [NAC, N-Acetylcysteine]
TF activity ([5]; cells incubated with AGE-alb, 30 mmol/L): concentration dependent inhibition of TF activity
AGE-alb induced TF mRNA [5]: almost completely suppressed
GABP DNA binding activity (EMSA) ([2]; 3T3 cells treated 2 h, single and double N-box probes): prevented

CCNc1cccnc1N1CCN(CC2(C)CCc3c(C)c(O)c(C)c(C)c3O2)CC1.Cl (stereo not shown) [U78518F]
insulitis and diabetes [3]: decreased insulitis and delayed diabetes

CC(O)(CS(=O)(=O)c1ccc(F)cc1)C(=O)Nc1ccc(C#N)c(C(F)(F)F)c1 (stereo not shown) [casodex]
Elk-1 transcription activity [6]: increase in Elk-1 transcription activity

CC(C)(O)C(=O)Nc1ccc([N+](=O)[O-])c(C(F)(F)F)c1 [hydroxyflutamide]
Elk-1 transcription activity [6]: increase in Elk-1 transcription activity

CN(CC(=O)NO)C(=O)[C@@H]1CCCC[C@@H]1C(=O)O [idrapril]
TF activity [7]: decreased TF activity

CCCCc1nc(Cl)c(CO)n1Cc1ccc(-c2ccccc2-c2nn[nH]n2)cc1 [losartan]
plasma TF antigen levels [8]: negative effect on plasma TF antigen levels

NC(=O)c1cccnc1 [nicotinamide]
insulitis and diabetes [3]: decreased insulitis and delayed diabetes

CC(=O)[O-].[Na+] [sodium acetate]
MT mRNA levels [9]: no effect

CCC(=O)[O-].[Na+] [sodium propionate]
MT mRNA levels [9]: no effect

C[C@H](CSC(=O)c1ccccc1)C(=O)N1C[C@@H](Sc2ccccc2)C[C@H]1C(=O)O [zofenopril]
decrease of aortic corrected cumulative lesion area ([10]; 0.5 mg/kg/day, 6 weeks): 34%
decrease of common carotid corrected cumulative lesion area ([10]; 0.5 mg/kg/day, 6 weeks): 39%
intimal presence of native LDL ([10]; p<0.01 vs placebo): decreased
intimal presence of macrophage derived foam cells ([10]; p<0.05 vs placebo): decreased
macrophage-derived foam cells staining in the intima ([11]; 1 mg/kg/day): significant decrease in macrophage-derived foam cells staining
native LDL staining in the intima ([11]; 1 mg/kg/day): significant decrease in native LDL staining
total lesion area compared to placebo ([11]; zofenopril 0.05 or 1, captopril 5, enalapril 0.5 mg/kg/day, 29 weeks): significantly decreased total lesion area

EGF: EGF, an ERK agent
Effect on [ERK^phos] ([12]; DU145): ↑[ERK^Phos]
Effect on [ERK^phos] ([12]; LNCaP): ↑[ERK^phos]
Effect on [ERK^phos] ([12]; PC-3): ↑[ERK^phos]
Effect on [mRNAAR] [13]: ↓[mRNAAR]
Elk-1 transcription activity [6]: Elk-1 activation

heregulin
increase in GABPα protein level ([14]; Western blot, treated vs untreated cells): 2 fold
phosphorylation of GABPα and GABPβ ([14]; chick primary myotubes): increased phosphorylation
transcription of AChRδ and AChRε genes [14]: increased transcription
transcription of utrophin [14]: stimulated transcription
phosphorylation of ERK1/2 [15]: phosphorylation of ERK1/2

oxidized glutathione [GSSG]
GABP DNA binding activity, treated nuclear extracts [2]: nearly abolished GABP DNA binding

vitamin E
insulitis and diabetes [3]: decreased insulitis and delayed diabetes
effect on LPS induced TF expression [16]: inhibited the LPS induced expression
effect on Cu^+2 induced procoagulant activity ([16]; probucol 20, vitamin E 50, BHT 50, U74389G 20 μmol/L): inhibited the Cu^+2 induced procoagulant activity
